From PubChem BioAssay (NCI)
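Cultured in 96-well plates, cells were exposed to test compound for 48 hours across five concentrations. TGI marks complete inhibition of growth.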

Legend:
Experiment in all cases: NCI-60 cell line screen, 48 h
[1] = tested on: 786-0 renal
[2] = tested on: A498 renal
[3] = tested on: A549 NSCLC
[4] = tested on: ACHN renal
[5] = tested on: BT-549 breast
[6] = tested on: CAKI-1 renal
[7] = tested on: COLO 205 colon
[8] = tested on: DU-145 prostate
[9] = tested on: EKVX NSCLC
[10] = tested on: HCT-116 colon
[11] = tested on: HCT-15 colon
[12] = tested on: HOP-62 NSCLC
[13] = tested on: HOP-92 NSCLC
[14] = tested on: HS 578T breast
[15] = tested on: HT29 colon
[16] = tested on: IGROV1 ovarian
[17] = tested on: K-562 leukemia
[18] = tested on: KM12 colon
[19] = tested on: LOX IMVI melanoma
[20] = tested on: M14 melanoma
[21] = tested on: MALME-3M melanoma
[22] = tested on: MCF7 breast
[23] = tested on: MDA-MB-231 breast
[24] = tested on: MDA-MB-435
[25] = tested on: MDA-N
[26] = tested on: MOLT-4 leukemia
[27] = tested on: NCI-H226 lung
[28] = tested on: NCI-H23 lung
[29] = tested on: NCI-H460 lung
[30] = tested on: NCI-H522 lung
[31] = tested on: NCI/ADR-RES ovarian
[32] = tested on: OVCAR-3 ovarian
[33] = tested on: OVCAR-4 ovarian
[34] = tested on: OVCAR-5 ovarian
[35] = tested on: OVCAR-8 ovarian
[36] = tested on: PC-3 prostate
[37] = tested on: RPMI-8226 leukemia
[38] = tested on: RXF 393 renal
[39] = tested on: SF-268 CNS
[40] = tested on: SF-295 CNS
[41] = tested on: SF-539 CNS
[42] = tested on: SK-MEL-2 melanoma
[43] = tested on: SK-MEL-28 melanoma
[44] = tested on: SK-MEL-5 melanoma
[45] = tested on: SK-OV-3 ovarian
[46] = tested on: SN12C renal
[47] = tested on: SNB-19 CNS
[48] = tested on: SNB-75 CNS
[49] = tested on: SR leukemia
[50] = tested on: SW-620 colon
[51] = tested on: T-47D breast
[52] = tested on: TK-10 renal
[53] = tested on: U251 CNS
[54] = tested on: UACC-257 melanoma
[55] = tested on: UACC-62 melanoma
[56] = tested on: UO-31 renal
[57] = tested on: CCRF-CEM leukemia
[58] = tested on: HCC-2998 colon

CN(C)Cc1ccc(O)c(CN(C)C)n1
TGI [1]: > 100 µM
TGI [2]: > 100 µM
TGI [3]: > 100 µM
TGI [4]: > 100 µM
TGI [5]: > 100 µM
TGI [6]: > 100 µM
TGI [7]: > 100 µM
TGI [8]: > 100 µM
TGI [9]: > 100 µM
TGI [10]: > 100 µM
TGI [11]: > 100 µM
TGI [12]: > 100 µM
TGI [13]: > 100 µM
TGI [14]: > 100 µM
TGI [15]: > 100 µM
TGI [16]: > 100 µM
TGI [17]: > 100 µM
TGI [18]: > 100 µM
TGI [19]: > 100 µM
TGI [20]: > 100 µM
TGI [21]: > 100 µM
TGI [22]: > 100 µM
TGI [23]: > 100 µM
TGI [24]: > 100 µM
TGI [25]: > 100 µM
TGI [26]: > 100 µM
TGI [27]: > 100 µM
TGI [28]: > 100 µM
TGI [29]: > 100 µM
TGI [30]: > 100 µM
TGI [31]: > 100 µM
TGI [32]: > 100 µM
TGI [33]: > 100 µM
TGI [34]: > 100 µM
TGI [35]: > 100 µM
TGI [36]: > 100 µM
TGI [37]: > 100 µM
TGI [38]: > 100 µM
TGI [39]: > 100 µM
TGI [40]: > 100 µM
TGI [41]: > 100 µM
TGI [42]: > 100 µM
TGI [43]: > 100 µM
TGI [44]: > 100 µM
TGI [45]: > 100 µM
TGI [46]: > 100 µM
TGI [47]: > 100 µM
TGI [48]: > 100 µM
TGI [49]: > 100 µM
TGI [50]: > 100 µM
TGI [51]: > 100 µM
TGI [52]: > 100 µM
TGI [53]: > 100 µM
TGI [54]: > 100 µM
TGI [55]: > 100 µM
TGI [56]: > 100 µM

COc1cc2c(SCCN(C)C)nc3ccccc3c2c2ccccc12
TGI [1]: 3.76 µM
TGI [2]: 35.8 µM
TGI [3]: 3.08 µM
TGI [4]: 3.64 µM
TGI [5]: 21.7 µM
TGI [6]: 3.87 µM
TGI [57]: 4.56 µM
TGI [7]: 3.75 µM
TGI [8]: 15.8 µM
TGI [9]: 4.08 µM
TGI [58]: 2.88 µM
TGI [10]: 2.83 µM
TGI [11]: 3.31 µM
TGI [12]: 2.81 µM
TGI [13]: 5.83 µM
TGI [14]: 8.61 µM
TGI [15]: > 100 µM
TGI [16]: 2.77 µM
TGI [17]: > 100 µM
TGI [18]: 2.69 µM
TGI [20]: 3.46 µM
TGI [21]: 3.99 µM
TGI [22]: 3.02 µM
TGI [23]: 5.52 µM
TGI [24]: 3.3 µM
TGI [25]: 4.87 µM
TGI [26]: 8.14 µM
TGI [27]: 8.12 µM
TGI [28]: 15 µM
TGI [29]: 3.33 µM
TGI [30]: 2.79 µM
TGI [31]: 16.5 µM
TGI [32]: 7.79 µM
TGI [33]: 9.22 µM
TGI [34]: 4.03 µM
TGI [36]: 8.24 µM
TGI [37]: 4.23 µM
TGI [38]: 4.29 µM
TGI [39]: 5.39 µM
TGI [40]: 3.45 µM
TGI [41]: 3.61 µM
TGI [42]: 4.03 µM
TGI [43]: 3.17 µM
TGI [44]: 3.08 µM
TGI [45]: 25.6 µM
TGI [46]: 6.41 µM
TGI [47]: 8.14 µM
TGI [48]: 8.32 µM
TGI [49]: 4.42 µM
TGI [50]: 3.64 µM
TGI [51]: 7.66 µM
TGI [52]: 7.23 µM
TGI [53]: 4.32 µM
TGI [54]: 3.38 µM
TGI [55]: 3.12 µM
TGI [56]: 8.09 µM
